Experimental findings from US20260226086A1, “COMPOUNDS AND COMPOSITIONS AS STAT3 DEGRADERS AND USES THEREOF” (REGENTS OF THE UNIVERSITY OF MICHIGAN, priority 2023, published 2026) are described below.

Common to all, as to format: cell-based
In experiment [1] the test system is SU-DHL-1 cells. As to the kind of experiment: CellTiter-Glo 2.0 cell viability assay, SU-DHL-1. Conditions: Homo sapiens, 96 h, 4 days. As for the experimental part:
(§1) For example, cell viability may be determined by CellTiter-Glo 2.0 Cell Viability Assay. In a typical procedure, cells seeded at certain amounts of cells (e.g., 1000 cells) per well are incubated with serially diluted compounds for certain period (e.g., 4 days) under certain conditions (e.g., at 37° C. with 5% CO2). At the end of treatment, CellTiter-Glo 2.0 is added to the wells and luminescence is acquired on TECAN SPARK plate reader. Untreated cells are used as control, Data points are fit with an equation (e.g., a four-parameter equation) to generate a concentration-response curve. IC50 values are calculated using a nonlinear regression analysis of the mean±SD from triplicate.
(§2) SU-DHL-1 and SUP-M2 cell viability was determined by CellTiter-Glo 2.0 Cell Viability Assay (Promega). SU-DHL-1 cell line was purchased from ATCC (Manassas, VA) and SUP-M2 (ACC-509) was purchased from DSMZ (Germany). RPMI 1640 medium and fetal bovine serum (FBS) were purchased from Gibco/Thermo Fisher Scientific. In a typical procedure, cells seeded at 1000 cells per well in 384-well white plates (Corning) were incubated with serially diluted compounds for 4 days at 37° C. with 5% C02. At the end of treatment, CellTiter-Glo 2.0 was added to the wells and luminescence was acquired on TECAN SPARK plate reader. Untreated cells were used as control. Data points were fit with a four-parameter equation to generate a concentration-response curve. IC50 values were calculated using a nonlinear regression analysis of the mean±SD from triplicate.
On the technique in general: In ATP-based viability assays light output follows the ATP content of the culture.

Experiment [2] concerns SUP-M2 cells. As to the kind of experiment: CellTiter-Glo 2.0 cell viability assay, SUP-M2. Conditions: SUP-M2, 96 h, 4 days. The protocol:
as §1, §2

The target of experiment [3] is T1, STAT3 (Homo sapiens, UniProt P40763).
T1 construct: This cell line is a clone created by using CRISPR-Cas9 to fuse HiBiT to the 3′ end of STAT3 in HeLa cells; host or cells: STAT3-HiBiT KI HeLa cell line (CRISPR-Cas9 knock-in clone)
Kind of experiment: HiBiT assay, STAT3 degradation in STAT3-HiBiT KI HeLa cells. Conditions: for Dmax at 1 µM / DC50: 24 h; for DC50: read-out: STAT3 Degradation (HeLa 24 h HiBit) DC50. As for the experimental part: STAT3 degradation may be determined by HiBiT assay. STAT3-HiBiT KI HeLa cell line, which is a clone created by using CRTISPR-Cas9 to fuse HiBiT to the 3′ end of STAT3 in HeLa cells, may be used for this assay. In a typical procedure, cells seeded at certain amounts of cells (e.g., 20000 cells) per well are incubated with serially diluted compounds for certain period of time (e.g., 24 hours) under certain conditions (e.g., at 37° C. with 5% CO2). At the end of treatment, Nano-Glo HiBiT Lytic Detection reagents is added to the wells and luminescence is acquired on TECAN SPARK plate reader. Untreated cells are used as control. Data points are fit with a four-parameter equation to generate a concentration-response curve. IC50 values are calculated using a nonlinear regression analysis of the mean±SD from triplicate.
STAT3-HiBiT KI HeLa cell line was purchased from Promega. This cell line is a clone created by using CRISPR-Cas9 to fuse HiBiT to the 3′ end of STAT3 in HeLa cells. DMEM medium and FBS were purchased from Gibco/Thermo Fisher Scientific. STAT3 degradation was determined based on quantification of luminescent signal using Nano-Glo HiBiT Lytic Detection System. In a typical procedure, cells seeded at 20000 cells per well in 96-well white plates (Corning) were incubated with serially diluted compounds for 24 hours at 37° C. with 5% CO2. At the end of treatment, Nano-Glo HiBiT Lytic Detection reagents was added to the wells and luminescence was acquired on TECAN SPARK plate reader. Untreated cells were used as control. Data points were fit with a four-parameter equation to generate a concentration-response curve. IC50 values were calculated using a nonlinear regression analysis of the mean±SD from triplicate.

T1 sequence (P40763 whole entry): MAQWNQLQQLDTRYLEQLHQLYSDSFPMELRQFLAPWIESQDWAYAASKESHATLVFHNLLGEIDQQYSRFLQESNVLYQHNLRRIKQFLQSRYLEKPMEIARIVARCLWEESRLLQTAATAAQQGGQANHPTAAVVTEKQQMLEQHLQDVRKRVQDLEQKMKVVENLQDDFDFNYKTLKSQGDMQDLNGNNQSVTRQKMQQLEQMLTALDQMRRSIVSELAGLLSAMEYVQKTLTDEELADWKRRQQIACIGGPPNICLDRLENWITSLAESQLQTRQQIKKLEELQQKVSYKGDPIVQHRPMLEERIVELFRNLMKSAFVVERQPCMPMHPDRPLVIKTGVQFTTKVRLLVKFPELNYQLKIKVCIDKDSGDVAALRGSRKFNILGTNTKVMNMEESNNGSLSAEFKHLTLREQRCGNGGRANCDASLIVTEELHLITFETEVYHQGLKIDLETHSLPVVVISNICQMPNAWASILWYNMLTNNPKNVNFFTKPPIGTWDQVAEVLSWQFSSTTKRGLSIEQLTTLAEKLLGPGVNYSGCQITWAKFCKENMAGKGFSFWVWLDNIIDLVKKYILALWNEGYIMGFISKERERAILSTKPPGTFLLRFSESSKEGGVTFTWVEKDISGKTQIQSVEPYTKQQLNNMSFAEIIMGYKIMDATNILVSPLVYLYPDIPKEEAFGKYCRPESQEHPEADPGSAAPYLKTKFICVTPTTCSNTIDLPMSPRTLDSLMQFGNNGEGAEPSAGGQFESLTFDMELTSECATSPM

Consider `CC(=O)N1CC[C@H]2CC[C@@H](C(=O)N[C@@H](CCC(N)=O)COc3cccc(CCCc4cn([C@H](C(=O)N5C[C@H](O)C[C@H]5C(=O)N[C@@H](C)c5ccc(-c6scnc6C)cc5)C(C)(C)C)nn4)c3Cl)N2C(=O)[C@@H](NC(=O)c2cc3cc(C(=O)P(=O)(O)O)ccc3[nH]2)C1` [Compound 1, (2-(((5S,8S,10aR)-3-acetyl-8-(((S)-5-amino-1-(2-chloro-3-(3-(1-((S)-1-((2S,4R)-4-hydroxy-2-(((S)-1-(4-(4-methylthiazol-5-yl)phenyl)ethyl)carbamoyl)pyrrolidin-1-yl)-3,3-dimethyl-1-oxobutan-2-yl)-1H-1,2,3-triazol-4-yl)propyl)phenoxy)-5-oxopentan-2-yl)carbamoyl)-6-oxodecahydropyrrolo[1,2-a][1,5]diazocin-5-yl)carbamoyl)-1H-indole-5-carbonyl)phosphonic acid], for which the IC50 in experiment [1] and in experiment [2] was < 10 nM throughout. Further, the Dmax at 1 µM in experiment [3] is > 80%. For the same compound, the 50% degradation concentration (DC50) in experiment [3] was < 10 nM.
Consider `Cc1ncsc1-c1ccc([C@H](C)NC(=O)[C@@H]2C[C@@H](O)CN2C(=O)[C@@H](n2cc(CCCc3cccc(OC[C@H](CCC(N)=O)NC(=O)[C@@H]4CC[C@@H]5CCN(C(=O)C(C)C)C[C@H](NC(=O)c6cc7cc(C(=O)P(=O)(O)O)ccc7[nH]6)C(=O)N54)c3Cl)nn2)C(C)(C)C)cc1` [Compound 2, (2-(((5S,8S,10aR)-8-(((S)-5-amino-1-(2-chloro-3-(3-(1-((S)-1-((2S,4R)-4-hydroxy-2-(((S)-1-(4-(4-methylthiazol-5-yl)phenyl)ethyl)carbamoyl)pyrrolidin-1-yl)-3,3-dimethyl-1-oxobutan-2-yl)-1H-1,2,3-triazol-4-yl)propyl)phenoxy)-5-oxopentan-2-yl)carbamoyl)-3-isobutyryl-6-oxodecahydropyrrolo[1,2-a][1,5]diazocin-5-yl)carbamoyl)-1H-indole-5-carbonyl)phosphonic acid], for which the half-inhibitory concentration (IC50) in experiment [1] was < 10 nM. Further, the IC50 in experiment [2] was < 10 nM. Further, in experiment [3], the maximal degradation (Dmax) at 1 µM was > 80% and the DC50 was < 10 nM.
The compound `Cc1ncsc1-c1ccc([C@H](C)NC(=O)[C@@H]2C[C@@H](O)CN2C(=O)[C@@H](n2cc(CCc3cccc(OC[C@H](CCC(N)=O)NC(=O)[C@@H]4CC[C@@H]5CCN(C(=O)C(C)C)C[C@H](NC(=O)c6cc7cc(C(=O)P(=O)(O)O)ccc7[nH]6)C(=O)N54)c3Cl)nn2)C(C)(C)C)cc1` [Compound 3, (2-(((5S,8S,10aR)-8-(((S)-5-amino-1-(2-chloro-3-(2-(1-((S)-1-((2S,4R)-4-hydroxy-2-(((S)-1-(4-(4-methylthiazol-5-yl)phenyl)ethyl)carbamoyl)pyrrolidin-1-yl)-3,3-dimethyl-1-oxobutan-2-yl)-1H-1,2,3-triazol-4-yl)ethyl)phenoxy)-5-oxopentan-2-yl)carbamoyl)-3-isobutyryl-6-oxodecahydropyrrolo[1,2-a][1,5]diazocin-5-yl)carbamoyl)-1H-indole-5-carbonyl)phosphonic acid] returned an IC50 in experiment [1] of 10 to 100 nM. The compound also had an IC50 in experiment [2] of 10 to 100 nM. In addition, in experiment [3], the Dmax at 1 µM is > 80% and the DC50 lay in the range of 10 to 100 nM.
`CC(=O)N1CC[C@H]2CC[C@@H](C(=O)N[C@@H](CCC(N)=O)COc3cccc(CCCc4cn([C@H](C(=O)N5C[C@H](O)C[C@H]5C(=O)N[C@@H](CCN5CCOCC5)c5ccc(-c6scnc6C)cc5)C(C)(C)C)nn4)c3Cl)N2C(=O)[C@@H](NC(=O)c2cc3cc(C(=O)P(=O)(O)O)ccc3[nH]2)C1` [Compound 4, (2-(((5S,8S,10aR)-3-acetyl-8-(((S)-5-amino-1-(2-chloro-3-(3-(1-((S)-1-((2S,4R)-4-hydroxy-2-(((S)-1-(4-(4-methylthiazol-5-yl)phenyl)-3-morpholinopropyl)carbamoyl)pyrrolidin-1-yl)-3,3-dimethyl-1-oxobutan-2-yl)-1H-1,2,3-triazol-4-yl)propyl)phenoxy)-5-oxopentan-2-yl)carbamoyl)-6-oxodecahydropyrrolo[1,2-a][1,5]diazocin-5-yl)carbamoyl)-1H-indole-5-carbonyl)phosphonic acid]: the IC50 in experiment [1] lay in the range of 10 to 100 nM. The compound further returned a half-maximal inhibitory concentration (IC50) in experiment [2] of 10 to 100 nM. For the same compound, in experiment [3], the greatest degradation seen (Dmax) at 1 µM was > 80% and the DC50 was in the range of 10 to 100 nM.
In turn, `COCCOCCOCCOC[C@H](NC(=O)[C@@H]1C[C@@H](O)CN1C(=O)[C@@H](n1cc(CCCc2cccc(OC[C@H](CCC(N)=O)NC(=O)[C@@H]3CC[C@@H]4CCN(C(C)=O)C[C@H](NC(=O)c5cc6cc(C(=O)P(=O)(O)O)ccc6[nH]5)C(=O)N43)c2Cl)nn1)C(C)(C)C)c1ccc(-c2scnc2C)cc1` [Compound 35, (2-(((5S,8S,10aR)-3-acetyl-8-(((S)-5-amino-1-(2-chloro-3-(3-(1-((S)-1-((2S,4R)-4-hydroxy-2-(((R)-13-(4-(4-methylthiazol-5-yl)phenyl)-2,5,8,11-tetraoxatridecan-13-yl)carbamoyl)pyrrolidin-1-yl)-3,3-dimethyl-1-oxobutan-2-yl)-1H-1,2,3-triazol-4-yl)propyl)phenoxy)-5-oxopentan-2-yl)carbamoyl)-6-oxodecahydropyrrolo[1,2-a][1,5]diazocin-5-yl)carbamoyl)-1H-indole-5-carbonyl)phosphonic acid] had an IC50 in experiment [2] of 10 to 100 nM. Besides, in experiment [3], the greatest degradation seen (Dmax) at 1 µM is > 80% and the DC50 fell in the range of 10 to 100 nM.
With `CCS(=O)(=O)c1ccc(CNC(=O)[C@H](CCC(N)=O)NC(=O)[C@@H]2CC[C@@H]3CCN(C(=O)CCCCCc4cn([C@H](C(=O)N5C[C@H](O)C[C@H]5C(=O)N[C@@H](COCCOCCOC)c5ccc(-c6scnc6C)cc5)C(C)(C)C)nn4)C[C@H](NC(=O)c4cc5cc(C(=O)P(=O)(O)O)ccc5[nH]4)C(=O)N32)cc1` [Compound 40], the IC50 in experiment [2] fell in the range of 10 to 100 nM. In addition, in experiment [3], the DC50 is 10 to 100 nM and the “STAT3 Degradation (HeLa 24 h HiBit) Dmax (@1 μM)” value is “A (A (>=80%))”.
Compound `COCCOCCOC[C@H](NC(=O)[C@@H]1C[C@@H](O)CN1C(=O)[C@@H](n1cc(CCCc2cccc(OC[C@H](CCC(N)=O)NC(=O)[C@@H]3CC[C@@H]4CCN(C(C)=O)C[C@H](NC(=O)c5cc6cc(C(=O)P(=O)(O)O)ccc6[nH]5)C(=O)N43)c2Cl)nn1)C(C)(C)C)c1ccc(-c2scnc2C)cc1` [Compound 41, (2-(((5S,8S,10aR)-3-acetyl-8-(((S)-5-amino-1-(2-chloro-3-(3-(1-((S)-1-((2S,4R)-4-hydroxy-2-(((R)-2-(2-(2-methoxyethoxy)ethoxy)-1-(4-(4-methylthiazol-5-yl)phenyl)ethyl)carbamoyl)pyrrolidin-1-yl)-3,3-dimethyl-1-oxobutan-2-yl)-1H-1,2,3-triazol-4-yl)propyl)phenoxy)-5-oxopentan-2-yl)carbamoyl)-6-oxodecahydropyrrolo[1,2-a][1,5]diazocin-5-yl)carbamoyl)-1H-indole-5-carbonyl)phosphonic acid] registered a half-maximal inhibitory concentration (IC50) in experiment [2] of 10 to 100 nM. Moreover, in experiment [3], the 50% degradation concentration (DC50) fell in the range of 10 to 100 nM and the “STAT3 Degradation (HeLa 24 h HiBit) Dmax (@1 μM)” value is reported as “A (A (>=80%))”.
`CCS(=O)(=O)c1ccc(CNC(=O)[C@H](CCC(N)=O)NC(=O)[C@@H]2CC[C@@H]3CCN(C(=O)CCCCCc4cn([C@H](C(=O)N5C[C@H](O)C[C@H]5C(=O)N[C@@H](COCCOCCOCCOC)c5ccc(-c6scnc6C)cc5)C(C)(C)C)nn4)C[C@H](NC(=O)c4cc5cc(C(=O)P(=O)(O)O)ccc5[nH]4)C(=O)N32)cc1` [Compound 45] yielded an IC50 in experiment [2] of 10 to 100 nM. In experiment [3], the Dmax at 1 µM is > 80% and the DC50 is 10 to 100 nM.

As usually defined, the IC50 is the concentration that gives 50% inhibition. Higher therefore signals a need for much substance. The Dmax is the largest share of the target that was removed. A lower Dmax goes with a partial loss of target. Usually DC50 stands for the midpoint of the concentration-degradation curve.
